Assay results taken from PubChem BioAssay (NCI).
Several values for one entry are separate records, joined by “and”; a condition that tells them apart may be missing. Equal entries are not always repeated.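 The compound was tested at five concentrations on cells cultured in 96-well plates, with a 48-hour exposure period. GI50: concentration for 50% inhibition of growth. Definition used: TGI = concentration required for complete inhibition of growth.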

How the values were obtained:
Assay in all cases: inhibition of tumour cell growth, NCI panel, 48 h
[1] = system: CCRF-CEM leukemia
[2] = system: COLO 205 colon
[3] = system: 786-0 renal
[4] = system: OVCAR-4 ovarian
[5] = system: NCI/ADR-RES ovarian
[6] = system: HOP-92 NSCLC
[7] = system: OVCAR-8 ovarian
[8] = system: SK-MEL-5 melanoma
[9] = system: HCC-2998 colon
[10] = system: BT-549 breast

| Compound | GI50 [1] [µM] | TGI [1] | GI50 [2] [µM] | TGI [2] [µM] | GI50 [3] [µM] | TGI [3] [µM] | GI50 [4] [µM] | TGI [4] | GI50 [5] [µM] | TGI [5] | GI50 [6] [µM] | TGI [6] [µM] | GI50 [7] [µM] | TGI [7] [µM] | GI50 [8] [µM] | TGI [8] [µM] | GI50 [9] [µM] | TGI [9] [µM] | GI50 [10] [µM] | TGI [10] [µM] |
| --- | --- | --- | --- | --- | --- | --- | --- | --- | --- | --- | --- | --- | --- | --- | --- | --- | --- | --- | --- | --- |
| O=C(CF)N(O)c1ccc(/C=C/c2ccccc2)cc1 | 2.16 | > 100 µM | 5.83 | > 100 | 1.98 | 7.14 | 5.49 | > 66.9 µM | 2.52 | > 100 µM | 3.97 | 35.7 | 2.77 | > 96.2 | 14.4 | > 100 | 1.64 | 7.69 | 4.37 | > 100 |
| C/C(=C\C1=C(Cl)C(=O)c2ccccc2C1=O)C(=O)O | 21.8 | 46.2 µM | 18.7 | 34 | 17.6 | 32.3 | 19.9 | 36.3 µM | 21.1 | 46.8 µM | 18.6 | 33 | 22.6 | 45.6 | 17.5 | 31.3 | 18.9 | 33.3 | 14.2 | 27.5 |
| CC(=O)c1cc2c(cc1Nc1c3ccccc3nc3occ(Cl)c13)OCO2 | 0.0468 | 0.291 µM | 0.391 | > 37.9 | 0.291 | > 44.3 | 82.9 | > 100 µM | 0.236 | 1.47 µM | 12.7 | > 100 | 0.205 | 0.766 | 0.103 | 0.376 | 0.187 | 0.37 | 0.157 | > 100 |
| COC(=O)[C@]12CC[C@@H](C)[C@H](C)[C@@H]1C1=CC[C@@H]3[C@@]4(C)C(C=O)=C[C@@](C)(COC(=O)c5ccco5)[C@@H]4C(=O)C[C@@]3(C)[C@]1(C)CC2 | 2.42 | 12.6 µM | 0.0314 | 0.0971 | 7.81 | > 100 | 3.57 | > 100 µM | 4.82 | > 100 µM | 1.37 | 91 | 5.55 | > 100 | 0.294 | 1.45 | 6.22 | > 100 | 4.06 | > 100 |
| CN(C)CCOc1ccc(/C(=C(/CCCl)c2ccccc2)c2ccccc2)cc1 | 1.06 | 2.85 µM and 23.5 µM | 0.858 | – | 0.906 | – | 1.47 | 5.1 µM and 32.9 µM | 1.6 | 4.95 µM and 30.7 µM | – | 17.1 | 1.08 | – | 0.784 | – | 0.776 | – | 0.976 | 1.8 |
| O=[N+]([O-])c1ccc2c(N3CCC(CCCC4CCN(c5ncnc6cc([N+](=O)[O-])ccc56)CC4)CC3)ncnc2c1 | 44.7 | > 100 µM | 11.5 | > 100 | > 46 | > 86.2 | 21.5 | > 100 µM | 0.658 | > 100 µM | 4.89 | > 76 | 1.62 | > 100 | 0.156 | 11.8 | > 87.1 | > 100 | 6.33 | > 70.6 |
| O=C(O)CCC(=O)c1ccc2ccc3cccc4ccc1c2c34 | – | > 100 µM | – | > 100 | – | > 100 | – | > 100 µM | – | > 100 µM | – | > 100 | – | > 100 | – | > 100 | – | > 100 | – | > 100 |
| O=C(CCCN1CCOCC1)Nc1ccc(Cn2nnc3c2C(=O)c2nnn(Cc4ccc(NC(=O)CCCN5CCOCC5)cc4)c2C3=O)cc1 | 1.81 | 6.32 µM | 0.982 | 2.43 | > 100 | > 100 | 1.25 | 2.51 µM | > 100 | > 100 µM | 2.54 | 5.04 | 3.78 | > 100 | 1.52 | 3.55 | 2.62 | 5.79 | 4.68 | 18.4 |
